Assay results: patent US6649364B1, “Anti-apoptotic compositions and methods using same” (The Regents of the University of California, priority 1995, dated 2003)
Read-outs that look alike come from different tables or passages of the source. Where a SMILES comes first, the peptide text is derived from it. [ ]: non-standard residue; d: D form. The star is where a group is joined. Sta = CC(C)C[C@H](N)[C@@H](O)CC(=O)O; Isovaleryl = CC(C)CC(=O)*

Target: T1, human recombinant ICE (Homo sapiens, UniProt P29466)
T1 construct: highly purified human recombinant ICE (p20/p10) (Merck, Wayne, N.J.); purchased Merck, Wayne, N.J
T1 sequence (P29466 120-297 limits assumed): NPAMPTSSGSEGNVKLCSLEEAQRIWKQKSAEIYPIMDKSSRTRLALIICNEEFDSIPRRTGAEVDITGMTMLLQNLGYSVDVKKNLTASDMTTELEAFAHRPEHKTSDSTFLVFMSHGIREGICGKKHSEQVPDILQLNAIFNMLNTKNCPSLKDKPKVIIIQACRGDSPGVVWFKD
T1 sequence (P29466 317-404 limits assumed): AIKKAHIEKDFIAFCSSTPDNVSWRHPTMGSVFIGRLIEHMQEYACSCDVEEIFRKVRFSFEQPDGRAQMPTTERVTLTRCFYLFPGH
Assay: ICE cleavage of actin in PC12 cell extracts, with protease inhibitors (SDS-PAGE, immunoblot)
Assay type: biochemical
Procedure: Cells were washed with ice-cold PBS twice and were extracted with Triton X-100® detergent (1%) in Hepes buffer (10 mM, pH=7.5). Supernatants were treated with ICE as follows: 50 μg of cellular protein extracted from semi-confluent cells grown in serum-containing media was incubated with 50 ng of highly purified human recombinant ICE (p20/p10) (Merck, Wayne, N.J.) at 37° C. for 2 hours in the presence of 10 mM dithiothreitol (DTT).
In order to determine whether any of the cellular proteins of relatively high abundance serve as ICE substrates, extracts prepared from PC12 pheochromocytoma cells (29), CSM14.1 cells (conditionally immortalized mesencephalic neuronal cells) (30, 31), and Rat-1 cells (25) were treated with highly purified human recombinant ICE under various conditions. The cleavage products were then analyzed by SDS-polyacrylamide gel electrophoresis.
Control was incubated in the absence of ICE.

[1] = cell extracts treated with ICE, 37° C., 2 hours

Row | Compound | inhibition of the generation of actin fragments by ICE | inhibition of the generation of actin fragments by ICE [1]
1 | O=C(O)CI [iodoacetate] | completely inhibited | 
2 | human α2-macroglobulin: granzyme B inhibitor, shown not to inhibit ICE |  | not
3 | Ac-Tyr-Val-Ala-Asp-CHO |  | completely inhibited
4 | CC(C)CC(=O)N[C@H](C(=O)N[C@H](C(=O)N[C@@H](CC(C)C)[C@@H](O)CC(=O)N[C@@H](C)C(=O)N[C@@H](CC(C)C)[C@@H](O)CC(=O)O)C(C)C)C(C)C [pepstain] (Isovaleryl-VV[Sta]A[Sta]-OH) |  | not
5 | CC(=O)N[C@@H](CC(C)C)C(=O)N[C@@H](CC(C)C)C(=O)N[C@H](C=O)CCCNC(=N)N [leupeptin] |  | not
6 | CC(C)C[C@H](NC(=O)[C@H]1O[C@@H]1C(=O)O)C(=O)NCCCCN=C(N)N [E-64] |  | not
7 | O=S(=O)(F)Cc1ccccc1 [phenylmethylsulfonyl fluoride] |  | not
